Tested on: α7 integrin promoter
Experiment: muscle cell-based assay: α7βgal+/− myoblasts/myotubes, LacZ reporter, β-galactosidase cleavage of FDG
Design: species or system mouse
Conditions: Myotubes; for Results in a α7+/− β-galactosidase assay, Myotubes, 0.5 uM: compound at 0.5 uM; for Results in a α7+/− β-galactosidase assay, Myotubes, 1 uM: compound at 1 uM; for Results in a α7+/− β-galactosidase assay, Myotubes, 5 uM: compound at 5 uM; for Results in a α7+/− β-galactosidase assay, Myotubes, 10 uM: compound at 10 uM; for Results in a α7+/− β-galactosidase assay, Myotubes, 20 uM: compound at 20 uM; for Results in a α7+/− β-galactosidase assay, Myotubes, 40 uM: compound at 40 uM
In short: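 Fluorescein generated from FDG by β-galactosidase reports α7 integrin promoter activity in differentiated myoblasts from α7+/− LacZ knock-in pups. Screening hits then went to dose-response, western blotting and a myostatin counterscreen.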

SMILES	Results in a α7+/− β-galactosidase assay, Myotubes, 0.5 uM	Results in a α7+/− β-galactosidase assay, Myotubes, 1 uM	Results in a α7+/− β-galactosidase assay, Myotubes, 5 uM	Results in a α7+/− β-galactosidase assay, Myotubes, 10 uM	Results in a α7+/− β-galactosidase assay, Myotubes, 20 uM	Results in a α7+/− β-galactosidase assay, Myotubes, 40 uM
CCOc1ccccc1Nc1cc2n(c(=O)n1)CCc1cc(OC)c(OC)cc1-2 [drawing 438]	0.06921	0.1295	−0.255	−0.3585	−0.1938	−0.1921
CCOc1ccccc1NC(=O)COC(=O)CNS(=O)(=O)c1ccc(C)cc1 [drawing 440]	−0.09293	0.0165	−0.2547	−0.2483	−0.1393	−0.07634
Fc1ccc(-c2ccnc3nc(N4CCN(c5ccccc5)CC4)nn23)cc1 [drawing 441]	0.1617	0.1989	0.08445	0.3037	−0.1429	0.1756
CCOc1cc2c3c(c1)C(C)=CC(C)(C)N3C(=O)C2=O [drawing 442]	0.1339	0.05498	−0.2641	−0.2882	−0.3067	−0.3705
COc1ccc2c(c1)/C(=C\c1cccc(/C=C3/C(=O)Nc4ccc(OC)cc43)n1)C(=O)N2 [drawing 443]	−0.1407	−0.2351	−0.5201	−0.5078	−0.5433	−0.6161
C/C(=N\NC(=O)c1cc(C)oc1C)c1ccc2ccccc2c1 [drawing 444]	−0.05394	−0.1247	0.2514	−0.05957	−0.1231	−0.2807
O=C1Nc2ccccc2/C1=C\c1cccn1-c1ccc(OC(F)(F)F)cc1 [drawing 445]	0.0705	0.06007	0.1996	−0.05189	−0.1444	−0.2888
NS(=O)(=O)c1ccc(NC(=O)CN2CCc3ccccc32)cc1 [drawing 446]	−0.03601	−0.07498	0.1476	−0.1666	−0.05843	−0.06764
CC(=O)C1=C(C)Nc2ncnn2C1c1ccc(C)cc1 (stereo not drawn) [drawing 447]	0.06012	−0.01856	0.152	−0.155	−0.1763	−0.08699
COc1ccc(OC)c(S(=O)(=O)Nc2c(NC3CCCCC3)c3ccccc3oc2=O)c1 [drawing 448]	0.01269	−0.0336	0.04486	−0.2638	−0.05892	−0.2063
CC(=O)Nc1ccc(NC(=O)C/C(C)=N/NC(=O)COc2cc(C)c(Br)cc2Br)cc1 [drawing 449]	−0.08286	−0.1235	−0.2507	−0.3124	−0.1128	−0.2976
Cc1cccc(Cn2cnc3c(nnn3Cc3ccc(Cl)cc3)c2=O)c1 [drawing 450]	0.04908	−0.01328	−0.09823	−0.3107	−0.1707	−0.1775
CCOc1ccc(Br)cc1S(=O)(=O)Nc1ccc(C(=O)Nc2ccccc2OC)cc1 [drawing 451]	0.1091	0.02499	−0.02123	−0.1229	−0.2419	−0.2407
O=C(NCc1ccccc1)c1csc(-c2cccnc2)n1 [drawing 452]	−0.05273	−0.1614	0.1395	0.1693	0.05975	−0.1073
O=C1C2CCCN2C(=O)N1CCCN1CCN(c2cccc(Br)c2)CC1 (stereo not drawn) [drawing 453]	−0.101	−0.07437	−0.1132	0.07677	−0.1243	0.1476
C=CCc1c(C)nc(-c2ccccc2)nc1N/N=C(\C)c1ccc(N)cc1 [drawing 454]	−0.04135	−0.05977	−0.2067	0.05284	−0.1823	0.1021
CC(C)(C)c1csc(NC(=O)c2cccnc2)n1 [drawing 455]	−0.1018	−0.04907	0.01472	0.1276	−0.2798	−0.144
Cc1ccccc1/C=C1\C(=O)Nc2ccc(F)cc21 [drawing 456]	0.008769	−0.01895	−0.02208	0.1345	−0.1202	0.009496
Cc1ccc2c(c1)/C(=C/c1ccccc1)C(=O)N2 [drawing 457]	−0.1541	−0.09775	−0.09703	0.151	−0.411	−0.4149
COC(=O)c1ccccc1CC(=O)CSc1nc(O)c(-c2ccccc2)c(O)n1 [drawing 458]	−0.05289	−0.1068	−0.1993	0.1104	−0.1578	0.03611
Cc1ccc2c(c1)/C(=C/c1ccccc1F)C(=O)N2 [drawing 459]	−0.02905	−0.08264	−0.2089	0.1057	−0.3626	−0.3722
CC(=O)Nc1ccc(-n2c(C)nc(=O)c(-c3ccccc3)c2C)cc1 [drawing 460]	−0.1626	−0.1764	−0.2443	−0.1679	−0.3617	−0.505
CCc1nc2ccccc2c(C(=O)NCc2ccccc2)c1C [drawing 461]	−0.0989	−0.1627	0.438	0.1173	−0.1092	0.1436
CCOC(=O)c1cc(-c2cccs2)nc2c1c(C)nn2-c1ccccn1 [drawing 462]	−0.07388	−0.1286	−0.1329	−0.1516	−0.2792	−0.2792
CN1CCN(c2ccccc2/C=C2\C(=O)Nc3ccccc32)CC1 [drawing 463]	0.01535	0.02095	−0.163	−0.162	−0.1247	−0.07473
